Experimental findings from paper PMC7495481, “Sequence specificity analysis of the SETD2 protein lysine methyltransferase and discovery of a SETD2 super-substrate” (Communications Biology, 2020) are described below.

Several values for one entry are separate records, joined by “and”; a condition that tells them apart may be missing. Equal entries are not always repeated.

The target of experiment [1] is T1, SETD2 (Homo sapiens, UniProt Q9BYW2).
T1 construct: SETD2 catalytic SET domain (amino acids 1347–1711, UniProt No: Q9BYW2); made in house; host or cells: E. coli
T1 sequence (Q9BYW2 1347-1711): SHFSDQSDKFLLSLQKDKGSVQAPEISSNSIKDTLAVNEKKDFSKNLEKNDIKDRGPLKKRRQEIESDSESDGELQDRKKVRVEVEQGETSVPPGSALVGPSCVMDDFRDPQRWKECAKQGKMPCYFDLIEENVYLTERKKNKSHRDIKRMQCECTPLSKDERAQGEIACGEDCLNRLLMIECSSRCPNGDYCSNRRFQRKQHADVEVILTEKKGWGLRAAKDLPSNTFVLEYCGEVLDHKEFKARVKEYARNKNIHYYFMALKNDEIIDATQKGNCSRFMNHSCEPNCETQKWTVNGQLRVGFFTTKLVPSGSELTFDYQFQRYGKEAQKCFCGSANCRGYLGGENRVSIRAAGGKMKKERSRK
The experiment is described as follows: Peptide SPOT array methylation of H3K36 (29–43) variants, super-substrate design (Fig. 2a). In kind it is biochemical. From the text: Based on these observations, we aimed to explore, if better substrates than H3K36 can be designed for SETD2. We synthesized peptide SPOT arrays including H3K36 (29–43) as a positive control and the H3K36A mutant as a negative control, in which up to 5 combined mutations were systematically introduced that converted the original H3K36 residues into residues that are more favored (Fig. 2a and Supplementary Table 1). This peptide array was methylated by SETD2 as described above and the methylation signal was captured by autoradiography.
Fig. 2 Design of an optimized SETD2 peptide substrate and analysis of its methylation. a Variants of the H3K36 (29–43) peptide containing up to five mutations (Supplementary Table 1) were synthesized on a cellulose membrane and methylated by SETD2. The signal of the transferred radioactive methyl groups was detected by autoradiography. Spots A1 and B15 contain the H3K36 sequence, A2 and B16 the H3K36A peptide. Two films with different exposure times are shown to visualize weaker methylated spots as well. b Comparison of the methylation of purified super-substrate (ssK36) and the H3K36 peptides. […] Methylation reactions were conducted using 20 µM peptide and 6 µM enzyme. The lower panels display autoradiography films after different exposure times allowing to compare the methylation levels of the different samples. For comparison, different dilutions of the methylated ssK36 were loaded as indicated. c Time course of ssK36 peptide methylation determined under single turnover conditions using 5 µM substrate and 6 µM enzyme. […] The gels with the radioactive ssK36 (5 µl loaded per well) and H3K36 peptides (20 µl loaded per well) were exposed together to the same x-ray film. […] An enlargement of the H3K36 data with adjusted y-axis scale is shown in Supplementary Fig. 3d.
(§1) Peptide arrays containing fifteen amino acid long peptides were synthesized using the SPOT synthesis method[48] with an Autospot peptide array synthesizer (Intavis AG, Köln, Germany). After synthesis, the obtained membranes were pre-incubated in methylation buffer (20 mM Tris/HCl pH 9, 0.01% Triton X-100, 10 mM DTT, 1.5 mM MgCl2) for 5 min on a shaker. Thereafter, the membranes were incubated in methylation buffer supplemented with 0.76 µM radioactively labeled AdoMet (PerkinElmer) and 3–6 µM SETD2 enzyme for 60 min on a shaker. After methylation, the membranes were washed 5 times for 5 min in wash buffer (100 mM NH4HCO3, 1% SDS) and incubated in amplify NAMP100V (GE Healthcare) for 5 min. This was followed by the exposure of the membranes to a hyperfilm^TM high performance autoradiography (GE Healthcare) film at −80 °C in the dark. The films were developed with an Optimax Typ TR machine after different exposue times. For quantification the signal intensities were measured with the Phoretix^TM software and analyzed with Microsoft Excel.

Experiment [2] concerns the target T1, SETD2. The experiment is described as follows: Peptide SPOT array target lysine methylation of selected non-histone peptides (Fig. 3b). It counts as biochemical. The settings on record: Exp1–Exp3, 3–6 µM SETD2, 0.76 µM AdoMet, 60 min, pH 9, listed as DS.
From the text: However, we could identify 166 possible targets, which contain partial matches to the substrate specificity profile. The possible methylation of these 166 putative substrates was investigated at the peptide level. For this, fifteen amino acid long peptides containing the sequence of the non-histone targets surrounding the predicted target lysine were synthesized on a membrane. The H3K36 (29–43) peptide (spots A1, I9), the super-substrate peptide (spots A3, I11) and the corresponding lysine to alanine mutation peptides (spot A2, I10, and A4, I12) were included as positive and negative controls (Fig. 3a, Supplementary Fig. 4 and Supplementary Table 2). The methylation reactions and the detection of the methylation signals were performed in duplicates as described above. We observed that all of the investigated peptides were more weakly methylated than the super-substrate peptide. […] In the next step, 20 of the peptides were selected for further investigation based on the methylation intensity and the known functions of the proteins to confirm the methylation at the predicted target site. The peptides were synthesized on another membrane, now including the target lysine to alanine mutation control peptides in each case. The methylation reactions and the detection of the signal were conducted as described above (Fig. 3b, Supplementary Fig. 5 and Supplementary Table 3).
Fig. 3 Identification of non-histone substrates of SETD2. a Candidate non-histone peptide substrates were identified in the human proteome based on the SETD2 super-substrate specificity profile. The peptides were synthesized on a peptide SPOT array (Supplementary Table 2) and methylated by SETD2. As controls, the H3K36, H3K36A, ssK36 and ssK36A peptides were included on spots A1–A4 and I9–I12. The autoradiography image is an example of the obtained results. […] The quantification of the data of two experiments is shown in Supplementary Fig. 4. b Analysis of target lysine methylation of selected non-histone substrate peptides. Peptide SPOT arrays were synthesized containing the non-histone peptide substrates identified in panel A in addition to the lysine to alanine mutations presented on the array as every second spot (Supplementary Table 3). As controls, the H3K36, H3K36A, ssK36, and ssK36A mutant peptides were included on spot A1–A4 and C5–C8. The autoradiography image is an example of the obtained results. The quantification of the data of three experiments is shown in Supplementary Fig. 5. Peptides selected for furhter analysis are highlighted by blue circles. c Protein methylation of FBN1 and confirmation of the target lysine methylation. Both wild type (WT) and mutant (K666R) FBN1 were purified and equal amounts were methylated by SETD2 (2 µM). […] The size of FBN1 is indicated by an asterisk.
as §1

Consider “APRFGGVKRPNRYRP [ssK36, super-substrate peptide with four amino acid exchanges (A31R, T32F, K37R, H39N)]”, for which the “peptide array methylation of H3K36 variants (in words)” value at SETD2 [1] (SPOT array, 0.76 µM radioactive AdoMet, 3–6 µM SETD2, 60 min, pH 9, autoradiography) is “one of the most strongly methylated peptides”. Besides, the “fold stronger methylation of ssK36 than H3K36” value on SETD2 [1] (densitometric analysis of 5 pairs of H3K36 and ssK36 spots on independent arrays, ± SD) amounted to 70 ± 10 fold. For the same sequence, the “Relative methylation signal, Average” value on SETD2 [2] is 0.95 and 0.9901.
